31 compounds from patent US8163917B2, “Azaindoles useful as inhibitors of Janus kinases” (Vertex Pharmaceuticals Incorporated, priority 2006, dated 2012) can be followed below.

For one experiment, the target named is T1, JAK3 (Homo sapiens, UniProt P52333).
T1 sequence (P52333 1-1124): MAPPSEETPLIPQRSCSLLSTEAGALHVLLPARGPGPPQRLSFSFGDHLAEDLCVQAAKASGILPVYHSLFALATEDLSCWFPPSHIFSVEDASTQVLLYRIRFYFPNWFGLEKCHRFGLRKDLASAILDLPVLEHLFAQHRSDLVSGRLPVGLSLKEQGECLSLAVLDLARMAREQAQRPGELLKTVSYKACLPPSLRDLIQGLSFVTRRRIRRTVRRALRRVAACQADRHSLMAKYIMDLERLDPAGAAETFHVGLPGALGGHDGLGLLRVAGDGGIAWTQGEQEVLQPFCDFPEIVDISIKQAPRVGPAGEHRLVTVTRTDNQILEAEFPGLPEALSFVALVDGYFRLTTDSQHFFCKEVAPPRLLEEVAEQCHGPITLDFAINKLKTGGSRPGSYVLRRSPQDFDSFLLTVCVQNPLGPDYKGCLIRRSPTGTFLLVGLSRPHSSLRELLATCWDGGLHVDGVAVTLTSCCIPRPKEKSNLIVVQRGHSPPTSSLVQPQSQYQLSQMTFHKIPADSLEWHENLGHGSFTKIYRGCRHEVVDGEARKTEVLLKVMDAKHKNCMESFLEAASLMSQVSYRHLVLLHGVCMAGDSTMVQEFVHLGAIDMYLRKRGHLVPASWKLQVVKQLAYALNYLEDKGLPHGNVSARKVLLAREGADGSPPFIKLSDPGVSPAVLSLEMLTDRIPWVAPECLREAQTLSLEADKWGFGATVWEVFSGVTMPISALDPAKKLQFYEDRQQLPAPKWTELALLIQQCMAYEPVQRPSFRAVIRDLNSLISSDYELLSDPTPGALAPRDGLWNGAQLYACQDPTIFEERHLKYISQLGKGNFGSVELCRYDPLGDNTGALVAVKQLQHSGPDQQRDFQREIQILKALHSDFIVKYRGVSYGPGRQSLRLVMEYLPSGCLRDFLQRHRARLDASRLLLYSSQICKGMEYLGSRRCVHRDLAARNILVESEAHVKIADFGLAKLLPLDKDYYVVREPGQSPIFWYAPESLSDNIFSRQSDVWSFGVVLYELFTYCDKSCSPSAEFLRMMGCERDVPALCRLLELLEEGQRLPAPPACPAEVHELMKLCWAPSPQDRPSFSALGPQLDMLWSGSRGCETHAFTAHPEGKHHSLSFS
Description: JAK3 Inhibition Assay. It counts as biochemical. Conditions: 5 μM ATP, 1 μM poly(Glu)4Tyr, 1 nM JAK3, 25° C. As for the experimental part:
(§1) Compounds were screened for their ability to inhibit JAK3 using the assay shown below. Reactions were carried out in a kinase buffer containing 100 mM HEPES (pH 7.4), 1 mM DTT, 10 mM MgCl2, 25 mM NaCl, and 0.01% BSA. Substrate concentrations in the assay were 5 μM ATP (200 uCi/μmole ATP) and 1 μM poly(Glu)4Tyr. Reactions were carried out at 25° C. and 1 nM JAK3.
(§2) To each well of a 96 well polycarbonate plate was added 1.5 μl of a candidate JAK3 inhibitor along with 50 μl of kinase buffer containing […] and 10 μM ATP. This was then mixed and 50 μl of kinase buffer containing 2 nM JAK3 enzyme was added to start the reaction. After 20 minutes at room temperature (25° C.), the reaction was stopped with 50 μl of 20% trichloroacetic acid (TCA) that also contained 0.4 mM ATP. The entire contents of each well were then transferred to a 96 well glass fiber filter plate using a TomTek Cell Harvester. After washing, 60 μl of scintillation fluid was added and ^33P incorporation detected on a Perkin Elmer TopCount.

The target in a further experiment is JAK-2 enzyme (Homo sapiens, UniProt O60674). Description: JAK2 Inhibition Assay. Format: biochemical. As to conditions: 12 μM ATP, 15 μM poly(Glu)4Tyr. As for the experimental part: as §1, §2
JAK-2 enzyme, sequence (O60674 whole entry): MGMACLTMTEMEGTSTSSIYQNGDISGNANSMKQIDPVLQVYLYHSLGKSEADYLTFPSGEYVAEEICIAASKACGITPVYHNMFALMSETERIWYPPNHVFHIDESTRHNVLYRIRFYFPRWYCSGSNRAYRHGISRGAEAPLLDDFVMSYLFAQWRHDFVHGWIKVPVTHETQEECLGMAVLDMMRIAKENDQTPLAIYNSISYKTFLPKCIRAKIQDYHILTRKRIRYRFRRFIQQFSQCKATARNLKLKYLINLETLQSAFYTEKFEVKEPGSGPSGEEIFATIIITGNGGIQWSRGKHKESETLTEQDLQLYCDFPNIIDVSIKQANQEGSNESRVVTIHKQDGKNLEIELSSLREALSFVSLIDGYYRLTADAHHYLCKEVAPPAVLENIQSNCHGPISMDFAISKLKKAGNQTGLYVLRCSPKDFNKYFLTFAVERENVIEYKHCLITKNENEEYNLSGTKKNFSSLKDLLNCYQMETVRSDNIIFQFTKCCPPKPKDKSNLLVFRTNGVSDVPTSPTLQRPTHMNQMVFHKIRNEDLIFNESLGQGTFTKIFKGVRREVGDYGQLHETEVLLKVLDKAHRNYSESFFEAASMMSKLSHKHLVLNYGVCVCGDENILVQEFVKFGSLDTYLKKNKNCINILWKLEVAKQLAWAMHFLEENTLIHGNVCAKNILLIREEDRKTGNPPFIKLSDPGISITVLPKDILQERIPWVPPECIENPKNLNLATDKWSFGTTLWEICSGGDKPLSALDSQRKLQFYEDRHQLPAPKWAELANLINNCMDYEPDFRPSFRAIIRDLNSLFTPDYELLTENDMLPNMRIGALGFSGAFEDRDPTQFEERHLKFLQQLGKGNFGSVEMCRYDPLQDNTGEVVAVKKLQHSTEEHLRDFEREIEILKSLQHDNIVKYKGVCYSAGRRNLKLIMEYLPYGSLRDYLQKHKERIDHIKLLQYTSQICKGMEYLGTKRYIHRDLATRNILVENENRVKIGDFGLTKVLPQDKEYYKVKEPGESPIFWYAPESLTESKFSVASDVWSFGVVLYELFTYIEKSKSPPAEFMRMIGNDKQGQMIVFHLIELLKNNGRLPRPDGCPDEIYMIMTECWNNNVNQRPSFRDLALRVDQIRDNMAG
The assays were as described above in Example 3 except that JAK-2 enzyme was used, the final poly(Glu)4Tyr concentration was 15 μM, and final ATP concentration was 12 μM.

One may read the Ki as a dissociation constant, usually derived from enzyme kinetics or from competition with a known ligand. A low value points to a stronger hold on the target. In the case of `O=C(O)c1cnc(-c2c[nH]c3ncc(Cl)cc23)nc1N1CCC[C@@H]1C(=O)NCC(F)(F)F` [Compound 56], the inhibitory constant (Ki) is not below 100 nM on JAK3 and not below 500 nM on JAK-2 enzyme. `COc1cc2nc(-c3c[nH]c4ncccc34)nc(NC(C)(C)C(=O)NCC(F)F)c2cc1OC` [Compound 390] yielded a Ki at JAK3 not below 100 nM. `CCC(CC)(Nc1ccnc(-c2c[nH]c3ncccc23)n1)C(=O)NCC(F)(F)F` [Compound 348] displayed a Ki at JAK-2 enzyme not below 500 nM.

As for `CN(CC(F)(F)F)C(=O)[C@H]1CCCN1c1nc(-c2c[nH]c3ncccc23)ncc1O` [Compound 339], the figures for the Ki at JAK3 and at JAK-2 enzyme were not below 100 nM and not below 500 nM, respectively. Take `CN(CC(F)(F)F)C(=O)[C@H]1CCCN1c1nc(-c2c[nH]c3ncc(Cl)cc23)ncc1O` [Compound 340]: the inhibitory constant (Ki) on JAK3 is not below 100 nM; on JAK-2 enzyme it was not below 500 nM. For the compound `CC(C)CC(=O)N1CCN(c2ccnc(-c3c[nH]c4ncccc34)n2)[C@@H](C(=O)NCC(F)(F)F)C1` [Compound 369], the Ki on JAK3 was not below 100 nM. Take `CC(C)[C@@H](Nc1nc(-c2c[nH]c3ncccc23)ncc1F)C(=O)NCC(F)(F)F` [Compound 367]: the figures for the inhibitory constant (Ki) on JAK3 and on JAK-2 enzyme were not below 100 nM and not below 500 nM, respectively.

On to `O=C(NCC(F)(F)F)[C@@H]1CCCN1c1nc(-c2c[nH]c3ncccc23)ncc1F` [Compound 310], for which the Ki is not below 100 nM on JAK3 and not below 500 nM on JAK-2 enzyme. At JAK3, `CC(C)(C)CC(=O)N1CCN(c2ccnc(-c3c[nH]c4ncccc34)n2)[C@@H](C(=O)NCC(F)(F)F)C1` [Compound 370] had a Ki not below 100 nM. `CCOC(=O)c1cnc(-c2c[nH]c3ncc(Cl)cc23)nc1N1CCC[C@@H]1C(=O)NCC(F)(F)F` [Compound 57] had a Ki on JAK-2 enzyme not below 500 nM. As for `O=C(NCC(F)(F)F)[C@@H]1CNCCN1c1nc(-c2c[nH]c3ncccc23)ncc1F` [Compound 321], the Ki at JAK3 was not below 100 nM; at JAK-2 enzyme, not below 500 nM. For `CCCNC(=O)N1CCN(c2ccnc(-c3c[nH]c4ncccc34)n2)[C@@H](C(=O)NCC(F)(F)F)C1` [Compound 372], the Ki on JAK-2 enzyme was not below 500 nM. As for `O=C(NCC(F)(F)F)[C@H]1C[C@H](O)CN1c1nc(-c2c[nH]c3ncccc23)ncc1F` [Compound 351], the values for the Ki at JAK3 and at JAK-2 enzyme were not below 100 nM and not below 500 nM, respectively. Turning to `CNC(=O)c1cc(N2CCC[C@@H]2C(=O)NCC(F)(F)F)nc(-c2c[nH]c3ncc(Cl)cc23)n1` [Compound 317], the inhibition constant (Ki) was not below 100 nM at JAK3 and not below 500 nM on JAK-2 enzyme. For the compound `CCN(C)C(=O)[C@H]1CCCN1c1ccnc(-c2c[nH]c3ncc(Cl)cc23)n1` [Compound 337], the Ki on JAK3 is not below 100 nM.

`CC(C)NC(=O)[C@H]1CCCN1c1nc(-c2c[nH]c3ncc(Cl)cc23)ncc1F` [Compound 322]: the Ki on JAK3 was not below 100 nM. On to `O=C(NC1CC1)c1cc(N2CCC[C@@H]2C(=O)NCC(F)(F)F)nc(-c2c[nH]c3ncc(Cl)cc23)n1` [Compound 320], for which the figures for the inhibition constant Ki on JAK3 and at JAK-2 enzyme were not below 100 nM and not below 500 nM, respectively.

In the case of `COC(=O)c1cc(N2CCC[C@@H]2C(=O)NCC(F)(F)F)nc(-c2c[nH]c3ncc(Cl)cc23)n1` [Compound 35], the values for the Ki on JAK3 and at JAK-2 enzyme were not below 100 nM and not below 500 nM, respectively.

Turning to `CCNC(=O)c1cc(N2CCC[C@@H]2C(=O)NCC(F)(F)F)nc(-c2c[nH]c3ncc(Cl)cc23)n1` [Compound 318], the inhibitory constant (Ki) at JAK3 was not below 100 nM; at JAK-2 enzyme, not below 5000 nM. The like results for `CN(c1nc(-c2c[nH]c3ncccc23)ncc1F)C1(C(=O)NCC(F)(F)F)CC1` [Compound 356] were, in that order, not below 100 nM and not below 500 nM.

As to `CC(C)C[C@@H](Nc1nc(-c2cn(C)c3ncc(Cl)cc23)ncc1F)C(=O)NCC(F)(F)F` [Compound 22], the Ki on JAK3 was not below 100 nM; at JAK-2 enzyme, not below 500 nM. The compound `C[C@H]1CCN(c2nc(-c3c[nH]c4ncc(Cl)cc34)ncc2F)[C@@H]1C(=O)NCC(F)(F)F` [Compound 9] returned an inhibition constant (Ki) on JAK-2 enzyme not below 500 nM. Regarding `CCCNC(=O)C(C)(C)Nc1nc(-c2c[nH]c3ncc(Cl)cc23)nc2cc(OC)c(OC)cc12` [Compound 223], the Ki on JAK3 was not below 100 nM.

`CC(C)(Nc1nc(-c2c[nH]c3ncc(Cl)cc23)ncc1C#N)C(=O)NCCC(F)(F)F` [Compound 326] returned a Ki on JAK3 not below 100 nM.

For the compound `O=C(NCC(F)(F)F)C1COCCN1c1nc(-c2c[nH]c3ncc(Cl)cc23)ncc1F` (stereo not drawn) [Compound 38], the Ki on JAK-2 enzyme is not below 500 nM. Consider `O=C(NCC(F)(F)F)[C@@H]1CCCCN1c1nc(-c2c[nH]c3ncc(Cl)cc23)ncc1F` [Compound 68], for which the Ki was not below 2000 nM at JAK3 and not below 5000 nM on JAK-2 enzyme. In turn, `COc1cc2nc(-c3c[nH]c4ncccc34)nc(NC(C)(C)C(=O)NCCF)c2cc1OC` [Compound 388] yielded an inhibitory constant (Ki) on JAK3 not below 100 nM. As for `CCN(C)C(=O)[C@H]1CCCN1c1nc(-c2c[nH]c3ncc(Cl)cc23)ncc1F` [Compound 336], the Ki at JAK3 was not below 100 nM; at JAK-2 enzyme, not below 500 nM. With `O=C(NC1CC1)[C@H]1CCCN1c1nc(-c2c[nH]c3ncc(Cl)cc23)ncc1F` [Compound 177], the inhibition constant (Ki) at JAK3 is not below 100 nM. As to `CCOC(=O)c1cnc(-c2c[nH]c3ncc(Cl)cc23)nc1N1CCC[C@@H]1C(=O)N(C)CC(F)(F)F` [Compound 338], the results for the Ki at JAK3 and on JAK-2 enzyme were not below 100 nM and not below 500 nM, respectively. On to `CCCNC(=O)c1cc(N2CCC[C@@H]2C(=O)NCC(F)(F)F)nc(-c2c[nH]c3ncc(Cl)cc23)n1` [Compound 319], for which the inhibition constant Ki at JAK3 was not below 2000 nM; on JAK-2 enzyme, not below 5000 nM.
